Several values for one entry are separate records, joined by “and”; a condition that tells them apart may be missing. Equal entries are not always repeated.
Test system: serum levels of 58 analytes
Test: Serum biomarker analysis, quantitative immunoassay multi-analyte profiling (Rules-Based Medicine RodentMAP v2.9), AA#80
Format: in vivo, mouse
Settings: serum
Protocol: In AA#80, serum samples were collected on Day 27, Day 34, Day 41 and Day 55 via the submandibular vein. Approximately 200 μL of blood per mouse was collected in Microtainer® serum separator tubes. Serum was removed following centrifugation and stored at <−65° C. until analysis.
Selected serum samples were sent to Rules-Based Medicine (Austin, Tex.) for quantitative immunoassay multi-analyte profiling of serum samples, with the goal of identifying biomarkers that could be used to monitor disease progression and response to B7-H4-Ig treatment. Day 27, Day 34, and Day 41 sera from the three representative mice in the B7-H4-Ig group (tag #3332, 3334, and 3338) and three representative mice in the Synagis® group (tag #3324, 3329, and 3330) were analyzed for levels of 58 analytes using the RodentMAP v2.9 Testing Service.
Data from the Rules-Based Medicine analysis was analyzed using Microsoft Excel and GraphPad Prism software. T-tests were performed to compare the levels of each analyte in the B7-H4-Ig versus Synagis® treated samples. No correction was made for multiple comparisons. Additionally, correlation coefficients were calculated for each analyte versus disease score.

## Human B7-H4-Ig: human B7-H4 extracellular domain fused to hinge, CH2 and CH3 regions of human immunoglobulin Cγ1 chain; representative SEQ ID NOs:114-137
P of difference between groups, ALL
  SAP (Serum Amyloid P): Human LgG1 control vs. human B7-H4 Ig, ALL: 0.26
P of difference between groups, D 27
  SAP (Serum Amyloid P): Human LgG1 control vs. human B7-H4 Ig, D 27: 0.32
P of difference between groups, D 34
  SAP (Serum Amyloid P): Human LgG1 control vs. human B7-H4 Ig, D 34: 0.50
P of difference between groups, D 41
  SAP (Serum Amyloid P): Human LgG1 control vs. human B7-H4 Ig, D 41: 0.13
Day 27, LDD 0.01795
  M-CSF (Macrophage-Colony Stimulating Factor): 6.88 ng/mL and 6.51 ng/mL and 6.21 ng/mL
Day 27, LDD 0.0736
  MIP-1gamma (Macrophage Inflammatory Protein-1gamma): 43.2 ng/mL and 38.6 ng/mL and 32.1 ng/mL
Day 27, LDD 0.137
  TNF-alpha (Tumor Necrosis Factor-alpha): <low>
Day 27, LDD 0.18
  TEMP-1 (Tissue Inhibitor of Metalicproteinase Type-1): 1.38 ng/mL and 1.31 ng/mL and 1.14 ng/mL
Day 27, LDD 0.194
  IL-5 (Interleukin-5): 0.474 ng/mL and 0.333 ng/mL
Day 27, LDD 0.2255
  MIP-1alpha (Macrophage Inflammatory Protein-1alpha): 2.83 ng/mL and 3.13 ng/mL and 3.03 ng/mL
Day 27, LDD 0.465
  MIP-3beta (Macrophage Inflammatory Protein-3beta): 2.6 ng/mL and 2.79 ng/mL and 2.52 ng/mL
Day 27, LDD 0.5175
  Tissue Factor: 8.32 ng/mL and 11.7 ng/mL and 10 ng/mL
Day 27, LDD 0.95
  MPO (Myeloperoxidase): 245 ng/mL and 227 ng/mL and 191 ng/mL
Day 27, LDD 1.86
  SGOT (Serum Glutamic-Oxaloacetic Transaminase): 74.3 µg/mL and 84.6 µg/mL and 94.3 µg/mL
Day 27, LDD 2.66
  TPO (Thromboproletin): 38 ng/mL and 39.8 ng/mL and 34.2 ng/mL
Day 27, LDD 5.4
  SAP (Setrum Amtyloid P): 41 µg/mL and 39.5 µg/mL and 30.7 µg/mL
Day 27, LDD 7.174
  MIP-2 (Macrophage Inflammatory Protein-2): 20.9 pg/mL and 16.3 pg/mL and 21.6 pg/mL
Day 27, LDD 10
  MMP-9 (Matrix Metalloproteinase-9): 266 ng/mL and 140 ng/mL
Day 27, LDD 16.924
  MCP-1 (Monocyte Chemoattractant Protein-1): 72.6 pg/mL and 55.4 pg/mL and 66.9 pg/mL
Day 27, LDD 19
  VCAM-1 (Vescular Cell Adhesion Molecule-1): 2250 ng/mL and 2120 ng/mL and 2130 ng/mL
Day 27, LDD 21.85
  MDC (Macrophage-Derived Chemokine): 1250 pg/mL and 1110 pg/mL and 1040 pg/mL
Day 27, LDD 24
  Myoglobin: 17.5 ng/mL and 12.1 ng/mL and 9.69 ng/mL
Day 27, LDD 31.36
  MCP-3 (Monocyte Chemoattractant Protein-3): 160 pg/mL and 120 pg/mL and 129 pg/mL
Day 27, LDD 38.2
  VEGF (Vescular Endotheial Cell Growth Factor): 150 pg/mL and 128 pg/mL and 160 pg/mL
Day 27, LDD 40.28
  IP-10 (Inducible Protein-10): 57.3 pg/mL and 55.5 pg/mL and 38.6 pg/mL
Day 27, LDD 43.6
  LIF (Leukemia Infabitory Factor): 1540 pg/mL and 1500 pg/mL
Day 27, LDD 46.38
  MCP-5 (Monocyte Chemoattractant Protein-5): 41.4 pg/mL and 33.8 pg/mL and 29.4 pg/mL
Day 27, LDD 75.17
  SCF (Stem Cell Factor): 204 pg/mL and 194 pg/mL and 275 pg/mL
Day 27, LDD 77.65
  MIP-1beta (Macrophage Inflammatory Protein-1beta): 110 pg/mL and 115 pg/mL and 173 pg/mL
Day 27, LDD 85.48
  Lymphotactin: 164 pg/mL and 169 pg/mL and 194 pg/mL
Day 27, LDD 98.6
  VWF (Von Willebrand Factor): 143 ng/mL and 123 ng/mL and 107 ng/mL
Day 34, LDD 0.01795
  M-CSF (Macrophage-Colony Stimulating Factor): 5.79 ng/mL and 6.35 ng/mL and 6.51 ng/mL
Day 34, LDD 0.0736
  MIP-1gamma (Macrophage Inflammatory Protein-1gamma): 50.4 ng/mL and 30.1 ng/mL and 41 ng/mL
Day 34, LDD 0.137
  TNF-alpha (Tumor Necrosis Factor-alpha): <low>
Day 34, LDD 0.194
  IL-5 (Interleukin-5): 0.474 ng/mL and 0.264 ng/mL and 0.403 ng/mL
Day 34, LDD 0.2255
  MIP-1alpha (Macrophage Inflammatory Protein-1alpha): 3.03 ng/mL and 2.88 ng/mL and 3.08 ng/mL
Day 34, LDD 0.465
  MIP-3beta (Macrophage Inflammatory Protein-3beta): 2.79 ng/mL and 2.49 ng/mL and 3.11 ng/mL
Day 34, LDD 0.5175
  Tissue Factor: 10.8 ng/mL and 10.4 ng/mL and 13.3 ng/mL
Day 34, LDD 0.95
  MPO (Myeloperoxidase): 247 ng/mL and 254 ng/mL and 242 ng/mL
Day 34, LDD 2.66
  TPO (Thromboproletin): 43.4 ng/mL and 30.4 ng/mL and 36.1 ng/mL
Day 34, LDD 5.4
  SAP (Setrum Amtyloid P): 51.8 µg/mL and 31 µg/mL and 42.6 µg/mL
Day 34, LDD 7.174
  MIP-2 (Macrophage Inflammatory Protein-2): 36.8 pg/mL and 26.6 pg/mL and 22.2 pg/mL
Day 34, LDD 10
  MMP-9 (Matrix Metalloproteinase-9): 503 ng/mL and 334 ng/mL and 255 ng/mL
Day 34, LDD 16.924
  MCP-1 (Monocyte Chemoattractant Protein-1): 84.6 pg/mL and 56 pg/mL and 101 pg/mL
Day 34, LDD 19
  VCAM-1 (Vescular Cell Adhesion Molecule-1): 1860 ng/mL and 2190 ng/mL and 2470 ng/mL
Day 34, LDD 21.85
  MDC (Macrophage-Derived Chemokine): 1390 pg/mL and 1120 pg/mL and 1360 pg/mL
Day 34, LDD 38.2
  VEGF (Vescular Endotheial Cell Growth Factor): 160 pg/mL and 141 pg/mL and 155 pg/mL
Day 34, LDD 40.28
  IP-10 (Inducible Protein-10): 81 pg/mL and 59 pg/mL and 54.2 pg/mL
Day 34, LDD 43.6
  LIF (Leukemia Infabitory Factor): 1430 pg/mL and 1500 pg/mL and 1480 pg/mL
Day 34, LDD 46.38
  MCP-5 (Monocyte Chemoattractant Protein-5): 57.8 pg/mL and 29.2 pg/mL and 46.7 pg/mL
Day 34, LDD 75.17
  SCF (Stem Cell Factor): 182 pg/mL and 220 pg/mL and 217 pg/mL
Day 34, LDD 85.48
  Lymphotactin: 196 pg/mL and 162 pg/mL and 197 pg/mL
Day 34, LDD 98.6
  VWF (Von Willebrand Factor): 101 ng/mL and 137 ng/mL and 135 ng/mL
Day 41, LDD 0.01795
  M-CSF (Macrophage-Colony Stimulating Factor): 5.02 ng/mL and 5.67 ng/mL and 6.07 ng/mL
Day 41, LDD 0.0736
  MIP-1gamma (Macrophage Inflammatory Protein-1gamma): 42.8 ng/mL and 32.7 ng/mL and 42.5 ng/mL
Day 41, LDD 0.13
  OSM (Oncostatin M): <low>
Day 41, LDD 0.137
  TNF-alpha (Tumor Necrosis Factor-alpha): <low>
Day 41, LDD 0.194
  IL-5 (Interleukin-5): 0.474 ng/mL and 0.254 ng/mL and 0.264 ng/mL
Day 41, LDD 0.2255
  MIP-1alpha (Macrophage Inflammatory Protein-1alpha): 3.13 ng/mL and 2.93 ng/mL and 3.03 ng/mL
Day 41, LDD 0.309
  IL-7 (Interleukin-7): <low>
Day 41, LDD 0.465
  MIP-3beta (Macrophage Inflammatory Protein-3beta): 3.05 ng/mL and 3.03 ng/mL and 2.87 ng/mL
Day 41, LDD 0.5175
  Tissue Factor: 10.8 ng/mL and 9.17 ng/mL and 9.37 ng/mL
Day 41, LDD 0.95
  MPO (Myeloperoxidase): 208 ng/mL and 228 ng/mL and 285 ng/mL
Day 41, LDD 1.86
  SGOT (Serum Glutamic-Oxaloacetic Transaminase): 85.8 µg/mL and 93.9 µg/mL and 71.1 µg/mL
Day 41, LDD 2.66
  TPO (Thromboproletin): 38 ng/mL and 32.4 ng/mL and 36.1 ng/mL
Day 41, LDD 5.4
  SAP (Setrum Amtyloid P): 47.9 µg/mL and 38.6 µg/mL and 46 µg/mL
Day 41, LDD 7.174
  MIP-2 (Macrophage Inflammatory Protein-2): 25.9 pg/mL and 23.4 pg/mL and 19.7 pg/mL
Day 41, LDD 16.924
  MCP-1 (Monocyte Chemoattractant Protein-1): 71.9 pg/mL and 53.1 pg/mL and 74.8 pg/mL
Day 41, LDD 19
  VCAM-1 (Vescular Cell Adhesion Molecule-1): 1840 ng/mL and 1940 ng/mL and 2390 ng/mL
Day 41, LDD 21.85
  MDC (Macrophage-Derived Chemokine): 1350 pg/mL and 1110 pg/mL and 1290 pg/mL
Day 41, LDD 31.36
  MCP-3 (Monocyte Chemoattractant Protein-3): 197 pg/mL and 115 pg/mL and 132 pg/mL
Day 41, LDD 38.2
  VEGF (Vescular Endotheial Cell Growth Factor): 125 pg/mL and 120 pg/mL and 155 pg/mL
Day 41, LDD 40.28
  IP-10 (Inducible Protein-10): 69.3 pg/mL and 47.6 pg/mL and 59 pg/mL
Day 41, LDD 43.6
  LIF (Leukemia Infabitory Factor): 1540 pg/mL and 1980 pg/mL
Day 41, LDD 46.38
  MCP-5 (Monocyte Chemoattractant Protein-5): 48.8 pg/mL and 35.7 pg/mL and 37.9 pg/mL
Day 41, LDD 75.17
  SCF (Stem Cell Factor): 175 pg/mL and 198 pg/mL and 210 pg/mL
Day 41, LDD 85.48
  Lymphotactin: 187 pg/mL and 148 pg/mL
Day 41, LDD 98.6
  VWF (Von Willebrand Factor): 113 ng/mL and 111 ng/mL and 133 ng/mL
